Results taken from patent publication US6362166B1, “Antipicornaviral compounds and methods for their use and preparation” (Agouron Pharmaceuticals, Inc., priority 1996, dated 2002).
Read-outs that look alike come from different tables or passages of the source.

Key:
[1] = biological target: T1, Recombinant Rhinovirus 3C protease (RVP) serotype-14 (Human rhinovirus 14, UniProt P03303); assay: Inhibition of Rhinovirus Protease (fluorescence resonance energy transfer assay), serotype 14; type: biochemical, human rhinovirus (HRV); conditions: for kinact/KI: pH 7.6, read-out: kobs/I; for kobs/I: RVP serotype-14, progress curves in enzyme start experiments
T1 construct: Recombinant Rhinovirus 3C proteases from serotypes 14, 16, 2 or 89; made in house
T1 sequence (P03303 1538-1719): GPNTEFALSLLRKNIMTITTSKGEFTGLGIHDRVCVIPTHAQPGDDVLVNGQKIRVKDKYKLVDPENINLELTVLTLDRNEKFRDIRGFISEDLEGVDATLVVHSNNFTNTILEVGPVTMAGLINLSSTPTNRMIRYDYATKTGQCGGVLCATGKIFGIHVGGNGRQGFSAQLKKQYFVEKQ

[2] = test system: HRV-14; assay: Antirhinoviral HI-HeLa Cell Culture Assay (Cell Protection Assay, XTT dye reduction); type: cell-based, human rhinovirus (HRV) serotype-14
How it was run: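 HI-HeLa cells infected with HRV-14 at m.o.i. 0.13 or mock-infected, then incubated with compounds for two days. Cell protection read by XTT/PMS formazan at 450/650 nm; therapeutic index = CC50/EC50.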

[3] = Cytotoxicity in mock-infected HI-HeLa cells (antirhinoviral assay, XTT); type: cell-based; conditions: human; mock-infected HI-HeLa cells; two days; XTT; read-out: CC50
[4] = test system: HI-HeLa cells; assay: as above; type: cell-based
[5] = Rhinovirus B, HRV14, 48 h, HI-HeLa cells infected with HRV-14, m.o.i. 0.13, two days, XTT, read-out: EC50
[6] = HI-HeLa cells infected with HRV-14, m.o.i. 0.13, two days, XTT, read-out: EC50

SMILES | Ki [1] [µM] | EC50 [2, 5] [µM] | CC50 at 2 days [3] [µM] | kinact/KI [1] [M⁻¹ s⁻¹] | EC50 ([2]; Rhinovirus B, HRV14, 48 h) [µM] | kobs/I [1] | EC50 [2, 6] [µM] | CC50 [4] [µM]
CCOC(=O)/C=C/[C@H](CCC(=O)NC(c1ccccc1)(c1ccccc1)c1ccccc1)NC(=O)[C@H](Cc1ccccc1)NC(=O)[C@H](CC(C)C)NC(=O)OCc1ccccc1 [Compound 2, Ethyl-3-[CBZ-L-Leu-L-Phe-L-(Tr-Gln)]-E-Propenoate] | 6.6 | 100 | > 320 |  |  |  |  | 
CC(C)C[C@H](NC(=O)OCc1ccccc1)C(=O)N[C@@H](Cc1ccccc1)C(=O)N[C@H](/C=C/C(=O)OC(C)C)CCC(N)=O [Compound 17, Isopropyl-3-(CBZ-L-Leu-L-Phe-L-Gln)-E-Propenoate] | 1.25 | 1.8 | > 100 | 6100 |  |  |  | 
CC(C)C[C@H](NC(=O)OCc1ccccc1)C(=O)N[C@@H](Cc1ccccc1)C(=O)N[C@H](/C=C/C(=O)OC1CCCCC1)CCC(N)=O [Compound 25] | 5.5 | 3.1 | > 100 | 3700 |  |  |  | 
CCOC(=O)/C=C/C(CCC(N)=O)NC(=O)C(Cc1ccc(Cl)cc1)NC(=O)c1cc2c(OC)cccc2n1C(c1ccccc1)(c1ccccc1)c1ccccc1 [Compound 29, Ethyl-3-[N-(1-Tr-4-Methoxyindole-2-Carbonyl)-L-(4-Cl-Phe)-L-Gln]-E-Propenoate] |  | 27 | 500 |  |  |  |  | 
CCOC(=O)/C=C/[C@H](CCC(N)=O)NC(=O)[C@H](Cc1ccccc1)NC(=O)[C@H](CC(C)C)NC(=O)OCc1ccncc1 [Compound 36] | 15 | 5.6 | > 320 | 12000 |  |  |  | 
CCOC(=O)/C=C/C(CCC(N)=O)NC(=O)C(Cc1ccccc1)NC(=O)C(CC(C)C)NC(=O)c1ccc2ccccc2c1 (stereo not drawn) [Compound 44] | 12.6 | 1 | > 320 | 21000 |  |  |  | 
COc1cccc2[nH]c(C(=O)NC(Cc3ccc(F)cc3)C(=O)NC(/C=C/C(=O)O)CCC(N)=O)cc12 (stereo not drawn) [Compound 45] |  | > 100 | > 100 |  |  |  |  | 
CCOC(=O)/C=C/[C@H](COC(N)=O)NC(=O)[C@H](Cc1ccccc1)NC(=O)[C@H](CC(C)C)NC(=O)OCc1ccccc1 [Compound 56] | 15 | 1.6 | > 320 | 5620 |  |  |  | 
CC(C)C[C@H](NC(=O)OCc1ccccc1)C(=O)N[C@@H](Cc1ccccc1)C(=O)N[C@H](/C=C/c1nccn1C)CCC(N)=O [Compound 65] | 2.9 | 158 | > 320 |  |  |  |  | 
CC(C)C[C@H](NC(=O)OCc1ccccc1)C(=O)N[C@@H](Cc1ccccc1)C(=O)N[C@H](/C=C/CCl)CCC(N)=O [Compound 74] | 2.4 | 10 | 250 |  |  |  |  | 
CC(=O)OCC=CC(CCC(N)=O)NC(=O)C(Cc1ccccc1)NC(=O)C(CC(C)C)NC(=O)OCc1ccccc1 (stereo not drawn) [Compound 76] |  | > 320 | > 320 |  |  |  |  | 
CC(C)CC(NC(=O)OCc1ccccc1)C(=O)NC(Cc1ccccc1)C(=O)NC(C=CCOc1ccc(C(F)(F)F)cc1)CCC(N)=O (stereo not drawn) [Compound 77] |  | > 320 | > 320 |  |  |  |  | 
CC(C)C[C@H](NC(=O)OCc1ccccc1)C(=O)N[C@@H](Cc1ccccc1)C(=O)N[C@H](/C=C\CCl)CCC(N)=O [Compound 78] | 7 | 10 | 79.4 |  |  |  |  | 
CON=C/C=C/[C@H](CCC(N)=O)NC(=O)[C@H](Cc1ccccc1)NC(=O)[C@H](CC(C)C)NC(=O)OCc1ccccc1 [Compound 83] | 8 | 100 | > 320 |  |  |  |  | 
CC(C)C[C@H](NC(=O)OCc1ccccc1)C(=O)N[C@@H](Cc1ccccc1)C(=O)N[C@H](/C=C/C(=O)N1CCc2cc([N+](=O)[O-])ccc21)CCC(N)=O [Compound 86] | 4 | 17 | > 320 | 12000 |  |  |  | 
CC(C)C[C@H](NC(=O)OCc1ccccc1)C(=O)N[C@@H](Cc1ccccc1)C(=O)N[C@H](/C=C/C(=O)N1CCc2cc(F)ccc21)CCC(N)=O [Compound 87] | 6 | 10.6 | > 320 | 5430 |  |  |  | 
CC(C)C[C@H](NC(=O)OCc1ccccc1)C(=O)N[C@@H](Cc1ccccc1)C(=O)N[C@H](/C=C/C(=O)N1CCc2cc(S(=O)(=O)N(C)C)ccc21)CCC(N)=O [Compound 88] | > 30 | 8.8 | > 160 | 8960 |  |  |  | 
CC(C)C[C@H](NC(=O)OCc1ccccc1)C(=O)N[C@@H](Cc1ccccc1)C(=O)N[C@H](/C=C/C(=O)N1CCc2cccc(Cl)c21)CCC(N)=O [Compound 91] | 10 | 56 | > 320 | 5430 |  |  |  | 

SMILES | Ki [1] [µM] | EC50 [2, 5] [µM] | CC50 at 2 days [3] [µM] | kinact/KI [1] [M⁻¹ s⁻¹] | EC50 ([2]; Rhinovirus B, HRV14, 48 h) [µM] | kobs/I [1] | EC50 [2, 6] [µM] | CC50 [4] [µM]
COc1ccc2c(c1)CCN2C(=O)C=CC(CCC(N)=O)NC(=O)C(Cc1ccccc1)NC(=O)C(CC(C)C)NC(=O)OCc1ccccc1 (stereo not drawn) [Compound 93] |  | > 320 | > 320 | 3440 |  |  |  | 
CC(C)C[C@H](NC(=O)OCc1ccccc1)C(=O)N[C@@H](Cc1ccccc1)C(=O)N[C@H](/C=C/C(=O)N1CCc2cc(Br)ccc21)CCC(N)=O [Compound 94] | 1.5 | 46.8 | > 320 | 5800 |  |  |  | 
CCOC(=O)/C=C/[C@H](CCC(N)=O)NC(=O)[C@H](Cc1ccccc1)NC(=O)CNC(=O)OCc1ccccc1 [Compound 102] | 12 | 5.6 | > 320 | 3840 |  |  |  | 
CCOC(=O)/C=C/[C@H](CCC(N)=O)NC(=O)[C@H](Cc1ccccc1)NC(=O)[C@H](CC(C)C)NC(C)=O [Compound 107] | 13.5 | 13.5 | > 320 | 3660 |  |  |  | 
CCOC(=O)/C=C/[C@H](CCC(N)=O)NC(=O)[C@H](Cc1ccccc1)NC(=O)[C@H](CC(C)C)NC(=O)CO [Compound 111] | 5 | 29.5 | > 320 | 2060 |  |  |  | 
CCOC(=O)/C=C/[C@H](CCC(N)=O)NC(=O)[C@H](Cc1cnc[nH]1)NC(=O)[C@H](CC(C)C)NC(=O)OCc1ccccc1 [Compound 112] | 13 |  | > 320 | 6800 | 27 |  |  | 
CCOC(=O)/C=C/[C@H](CCC(N)=O)NC(=O)[C@H](Cc1ccccc1)NC(=O)[C@H](CC(C)C)NC(=O)CCO [Compound 115] | 11 | 19 | > 320 | 4480 |  |  |  | 
CCOC(=O)/C=C/[C@H](CCC(N)=O)NC(=O)[C@H](Cc1ccccc1)NC(=O)[C@H](CC(C)C)NC(=O)CSc1ccccn1 [Compound 118] | 39 | 17.8 | > 320 | 1450 |  |  |  | 
CCOC(=O)/C=C/[C@H](CCC(N)=O)NC(=O)[C@H](Cc1ccccc1)NC(=O)[C@H](CC(C)C)NC(=O)SC [Compound 119] | 5 | 1.1 | > 320 | 69800 |  |  |  | 
CC(C)CC(NC(=O)OCc1ccccc1)C(=O)NC(Cc1ccccc1)C(=O)NC(C=C1CCCOC1=O)CCC(N)=O (stereo not drawn) [Compound 130] | 0.03 to 0.04 | 15.8 | > 100 |  |  |  |  | 
CCOC(=O)/C=C/[C@H](CCC(N)=O)NC(=O)[C@H](Cc1ccc(C#N)cc1)NC(=O)[C@H](CC(C)C)NC(=O)OCc1ccccc1 [Compound 132] | 10 | 5.6 | > 320 | 10800 |  |  |  | 
CC(C)C[C@H](NC(=O)OCc1ccccc1)C(=O)N[C@@H](Cc1ccccc1)C(=O)N[C@H](/C=C/C(=O)N(C)O)CCC(N)=O [Compound 138] | 20 | > 41.7 | 41.7 | 1770 |  |  |  | 
CCOC(=O)/C(C)=C/[C@H](CCC(N)=O)NC(=O)[C@H](Cc1ccc(F)cc1)NC(=O)[C@@H](NC(=O)SC1CCCC1)C(C)(C)C [Compound 177, Ethyl-2-Methyl-3-[Cyclopentylthiocarbonyl-L-α-(t-Butyl-Gly)-L-(4-F-Phe)-L-Gln]-E-Propenoate] |  |  |  |  |  | 80,300 M-1 sec-1 | 0.5 | > 100
CCOC(=O)/C=C/[C@H](CCC(N)=O)NC(=O)[C@H](Cc1ccccc1)NC(=O)[C@@H](NC(=O)SC1CCCC1)C(C)(C)SC [Compound 178, Ethyl-3-[Cyclopentylthiocarbonyl-L-(S-Me-Pen)-L-Phe-L-Gln]-E-Propenoate] |  |  |  |  |  | 286,300 M-1 sec-1 | 0.1 | > 100
CC(=O)N1CC/C(=C\[C@H](CCC(N)=O)NC(=O)[C@H](Cc2ccc(F)cc2)NC(=O)[C@H](CSc2ccccc2)NC(=O)SC2CCCC2)C1=O [Compound 181] |  |  |  |  |  | 1,000,000 M-1 sec-1 | 0.1 | > 100
CCOC(=O)/C=C/[C@H](CCC(N)=O)NC(=O)[C@H](Cc1ccccc1)NC(=O)[C@H](CC(C)C)NC(=O)SC1CCCC1 [Compound 182] |  |  |  |  |  | 114,360 M-1 sec-1 | 0.18 | > 100
CCOC(=O)/C=C/[C@H](CCC(N)=O)NC(=O)[C@H](Cc1ccc(F)cc1)NC(=O)[C@@H](NC(=O)SC1CCCC1)C(C)C [Compound 184] |  |  |  |  |  | 59,900 M-1 sec-1 | 0.19 | > 100
CCOC(=O)/C=C/[C@H](CCC(N)=O)NC(=O)[C@H](Cc1ccc(F)cc1)NC(=O)[C@@H](NC(=O)SC1CCCC1)C(C)(C)Sc1ccc([N+](=O)[O-])cc1 [Compound 185] |  |  |  |  |  | 600,000 M-1 sec-1 | 0.5 | > 100
